The record followed here is ChEMBL document CHEMBL4431357, “Discovery of a novel class of highly potent inhibitors of the p53-MDM2 interaction by structure-based design starting from a conformational argument” (Bioorg Med Chem Lett, 2016).

In this assay the target is Tumour suppressor p53/oncoprotein Mdm2 (Homo sapiens, UniProt Q00987). Description: Inhibition of C-terminal biotin-tagged streptavidin labelled human MDM2 ( 2 to 188 residues)/Cy5-labelled p53 (18 to 26 residues)(unknown origin) interaction after 15 mins by TR-FRET assay. Type of assay: protein assay.
Sequence of Tumour suppressor p53/oncoprotein Mdm2 (P04637 whole entry, the tested form may be a part): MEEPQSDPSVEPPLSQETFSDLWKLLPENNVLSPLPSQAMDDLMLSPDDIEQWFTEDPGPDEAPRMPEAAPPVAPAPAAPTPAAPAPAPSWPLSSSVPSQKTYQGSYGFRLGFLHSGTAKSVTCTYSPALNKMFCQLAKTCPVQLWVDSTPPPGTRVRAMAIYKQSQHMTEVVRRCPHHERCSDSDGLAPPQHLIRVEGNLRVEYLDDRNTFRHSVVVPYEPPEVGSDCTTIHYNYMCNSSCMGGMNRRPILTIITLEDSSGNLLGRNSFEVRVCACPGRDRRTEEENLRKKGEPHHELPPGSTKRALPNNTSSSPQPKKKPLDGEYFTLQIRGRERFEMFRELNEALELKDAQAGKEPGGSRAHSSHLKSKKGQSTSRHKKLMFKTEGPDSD
Sequence of Tumour suppressor p53/oncoprotein Mdm2 (Q00987 whole entry, the tested form may be a part): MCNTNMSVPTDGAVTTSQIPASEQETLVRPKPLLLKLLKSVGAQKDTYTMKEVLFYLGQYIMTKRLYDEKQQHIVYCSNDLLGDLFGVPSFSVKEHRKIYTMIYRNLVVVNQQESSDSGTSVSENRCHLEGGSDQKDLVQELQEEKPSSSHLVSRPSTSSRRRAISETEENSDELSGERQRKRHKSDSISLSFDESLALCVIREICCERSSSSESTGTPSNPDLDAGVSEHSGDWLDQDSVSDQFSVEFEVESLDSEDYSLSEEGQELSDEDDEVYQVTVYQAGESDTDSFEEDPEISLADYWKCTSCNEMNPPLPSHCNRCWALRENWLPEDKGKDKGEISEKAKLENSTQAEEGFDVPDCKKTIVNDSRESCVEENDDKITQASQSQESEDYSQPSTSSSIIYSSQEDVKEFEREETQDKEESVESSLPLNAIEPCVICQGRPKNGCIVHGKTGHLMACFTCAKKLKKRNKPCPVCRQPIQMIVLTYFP

What is called IC50 is the midpoint of a concentration-inhibition curve. A high value points to weaker potency. On to `Cc1ccc(N2C(=O)c3[nH]nc(C)c3C2c2ccc(Cl)cc2)cc1` (stereo not given), for which half-maximal inhibition (IC50) was put at 1500 nM. That is a single-digit micromolar value.

In the case of `Cc1cc(Cl)ccc1C1c2c(C(C)C)n[nH]c2C(=O)N1c1cc(Cl)ccc1C` (racemic), the IC50 turned out to be 4.2 nM.

Take `CC(C)c1n[nH]c2c1C(c1ccc(Cl)cc1)N(c1cccc(Cl)c1)C2=O` (racemic): the IC50 came out at 32 nM. This IC50 is about 7.6-fold higher than that of the molecule before.

On to `CC(C)(C)c1n[nH]c2c1C(c1ccc(Cl)cc1)N(c1cccc(Cl)c1)C2=O` (racemic), for which half-maximal inhibition (IC50) required 18 nM.

Consider `Cc1n[nH]c2c1C(c1ccc(Cl)cc1)N(c1cccc(Cl)c1)C2=O` (racemic), for which the midpoint of inhibition, the IC50, lay at 350 nM. Compared with the last molecule, the IC50 is about 19-fold higher.
